# Measured values taken from article PMC5786021, “A dynamic allosteric pathway underlies Rad50 ABC ATPase function in DNA repair” (Scientific Reports, 2018).
# Read-outs that look alike come from different tables or passages of the source.
# Columns and labels:
# [1] = target: T1, Mre11_2-Rad50^NBD2 (Pyrococcus furiosus, UniProt P58301, DEL196-708); assay: 2-aminopurine DNA exonuclease fluorescence; format: biochemical; conditions: 1 mM AMP-PNP, 1 mM MnCl2, 5 mM MgCl2, 50 mM Tris pH 7.5, 60 °C; allosteric via Rad50
# T1 construct: about 160 kDa; E. coli; with DNA double-strand break repair protein Mre11
# [2] = target: T2, Mre11^HLH-Rad50^NBD (Pyrococcus furiosus, UniProt P58301, DEL196-708); assay: fluorescence polarization competition with BODIPY FL ATP; format: binding
# T2 construct: Mre11 helix-loop-helix aa344-426; His and NusA-His tags removed with TEV; E. coli; monomeric without nucleotide; with DNA double-strand break repair protein Mre11
# [3] = target: T3, Mre11^HLH-Rad50^NBD (Pyrococcus furiosus, UniProt P58301, DEL196-708/R805E); assay: as above; format: binding
# T3 construct: Mre11 helix-loop-helix aa344-426; His and NusA-His tags removed with TEV; E. coli; monomeric without nucleotide; with DNA double-strand break repair protein Mre11
# T3 sequence (P58301 709-882 R805E, other chains not shown): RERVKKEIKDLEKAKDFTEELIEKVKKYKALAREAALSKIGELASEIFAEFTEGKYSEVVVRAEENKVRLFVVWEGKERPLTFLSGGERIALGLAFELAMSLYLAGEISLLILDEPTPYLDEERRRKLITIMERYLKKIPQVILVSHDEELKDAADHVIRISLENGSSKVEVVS
# T3 sequence (P58301 1-195, stated change not applied, other chains not shown): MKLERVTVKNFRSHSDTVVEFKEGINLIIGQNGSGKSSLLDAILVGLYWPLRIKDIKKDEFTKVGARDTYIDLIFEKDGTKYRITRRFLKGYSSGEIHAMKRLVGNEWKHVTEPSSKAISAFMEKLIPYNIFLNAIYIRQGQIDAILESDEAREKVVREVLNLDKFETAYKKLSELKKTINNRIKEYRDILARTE
# T2 sequence (P58301 709-882, stated change not applied, other chains not shown): as the sequence (P58301 709-882 R805E, other chains not shown) above, with E97R counted along it
# T2 sequence (P58301 1-195, stated change not applied, other chains not shown): as the sequence (P58301 1-195, stated change not applied, other chains not shown) above
# T1 sequence (P58301 709-882, stated change not applied): as the sequence (P58301 709-882 R805E, other chains not shown) above, with E97R counted along it
# T1 sequence (P58301 1-195, stated change not applied): as the sequence (P58301 1-195, stated change not applied, other chains not shown) above
compound,measurement,setting,value
Nc1ncnc2c1ncn2[C@@H]1O[C@H](COP(=O)(O)OP(=O)(O)NP(=O)(O)O)[C@@H](O)[C@H]1O [AMP-PNP],reduction in Mre11 exonuclease activity,[1],non-hydrolyzable ATP analog AMP-PNP resulted in a dramatic reduction in exonuclease activity
Nc1ncnc2c1ncn2[C@@H]1O[C@H](COP(=O)(O)OP(=O)(O)O)[C@@H](O)[C@H]1O [ADP],Ki,"[2]; read-out: KI,ADP",6.5 µM
Nc1ncnc2c1ncn2[C@@H]1O[C@H](COP(=O)(O)OP(=O)(O)OP(=O)(O)O)[C@@H](O)[C@H]1O [ATP],Ki,[3],3 µM
same,Ki,[2],9.8 µM
